According to publication PMC2917178 (Biochemistry, 2010):
Entries after “also recorded” stand apart in the source; their conditions may differ. Where two headings read alike, the source gives them in different places.

Tests used:
[1] = molecular target: Rtt109 D287N (with Vps75) (Saccharomyces cerevisiae, UniProt P53853+Q07794, D287N); assay type: biochemical, yeast (Saccharomyces cerevisiae); conditions: AcCoA varied 0.5-30 μM, 400 μM H3 peptide, 0.1-0.5 μM Rtt109 variant, 4 μM Vps75, 50 mM Tris pH 7.5, 25 °C
[2] = molecular target: Rtt109 D288N (with Vps75) (Saccharomyces cerevisiae, UniProt P53853+Q07794, D288N); assay type: biochemical, yeast (Saccharomyces cerevisiae); conditions: AcCoA varied 0.5-30 μM, 400 μM H3 peptide, 0.1-0.5 μM Rtt109 variant, 4 μM Vps75, 50 mM Tris pH 7.5, 25 °C
Rtt109-Vps75 [3] = molecular target: T1, Rtt109-Vps75 (Saccharomyces cerevisiae, UniProt P53853+Q07794); test: Isothermal titration calorimetry into Rtt109-Vps75; assay type: binding, yeast (Saccharomyces cerevisiae)
T1 sequence (Q07794 1-436): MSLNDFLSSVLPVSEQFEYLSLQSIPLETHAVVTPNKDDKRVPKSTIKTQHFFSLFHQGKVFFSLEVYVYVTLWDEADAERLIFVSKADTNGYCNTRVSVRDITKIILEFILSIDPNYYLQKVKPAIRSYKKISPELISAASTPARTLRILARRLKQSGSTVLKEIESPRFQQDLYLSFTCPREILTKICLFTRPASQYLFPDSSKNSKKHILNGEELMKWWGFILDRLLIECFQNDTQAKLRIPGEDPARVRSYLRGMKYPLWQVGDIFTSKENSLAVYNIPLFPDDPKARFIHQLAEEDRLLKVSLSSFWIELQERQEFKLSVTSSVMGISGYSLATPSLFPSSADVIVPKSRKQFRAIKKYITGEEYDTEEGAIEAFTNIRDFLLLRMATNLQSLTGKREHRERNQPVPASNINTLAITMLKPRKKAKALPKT
T1 sequence (P53853 1-264 partner): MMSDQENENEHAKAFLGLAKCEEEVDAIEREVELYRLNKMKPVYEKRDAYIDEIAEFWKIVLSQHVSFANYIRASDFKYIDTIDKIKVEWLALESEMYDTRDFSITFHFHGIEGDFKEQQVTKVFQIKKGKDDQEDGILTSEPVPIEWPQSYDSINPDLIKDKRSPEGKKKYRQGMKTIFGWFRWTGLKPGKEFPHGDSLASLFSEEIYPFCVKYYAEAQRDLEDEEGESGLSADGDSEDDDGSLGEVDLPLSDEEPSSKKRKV

Rtt109-Vps75 [4] = molecular target: T1, Rtt109-Vps75; test: CoA product inhibition of Rtt109-Vps75; assay type: biochemical, yeast (Saccharomyces cerevisiae)
[5] = Stability of Rtt109 alone; assay type: physicochemical; conditions: without AcCoA or Vps75, 25°C
Rtt109 = test: HAT activity with fluorescein-labeled Vps75; assay type: biochemical, yeast; conditions: fluorescein-5-maleimide labeled Vps75, 1:1 label to Vps75
p300 = conditions: cited from earlier work

Sequence of Rtt109 D288N (with Vps75) (Q07794 whole entry D288N, one chain of several): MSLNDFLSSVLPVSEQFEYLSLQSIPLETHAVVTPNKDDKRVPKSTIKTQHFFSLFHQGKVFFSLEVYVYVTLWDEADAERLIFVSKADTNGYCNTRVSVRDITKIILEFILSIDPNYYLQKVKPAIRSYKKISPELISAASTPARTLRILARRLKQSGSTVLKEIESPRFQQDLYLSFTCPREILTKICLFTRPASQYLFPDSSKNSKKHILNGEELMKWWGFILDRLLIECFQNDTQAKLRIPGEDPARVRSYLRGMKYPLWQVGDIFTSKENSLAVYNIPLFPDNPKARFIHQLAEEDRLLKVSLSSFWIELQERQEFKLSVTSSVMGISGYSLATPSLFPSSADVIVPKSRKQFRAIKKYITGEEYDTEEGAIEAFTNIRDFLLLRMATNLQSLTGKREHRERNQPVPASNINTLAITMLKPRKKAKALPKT
Sequence of Rtt109 D287N (with Vps75) (Q07794 whole entry D287N, one chain of several): as the sequence (Q07794 whole entry D288N, one chain of several) above, with D287N, N288D counted along it

Q: Which Km [1] does the source give for `CC(=O)SCCNC(=O)CCNC(=O)[C@H](O)C(C)(C)COP(=O)(O)OP(=O)(O)OC[C@H]1O[C@@H](n2cnc3c(N)ncnc32)[C@H](O)[C@@H]1OP(=O)(O)O` [AcCoA, acetyl-Coenzyme A] here?
A: 0.7 ± 0.3 µM

Q: And the kcat [1]?
A: 1.2 ± 0.1 × 10^-2 s^-1

Q: And the kcat/Km [1]?
A: 1.7 ± 0.7 × 10^4 M^-1s^-1

Q: What about the Km [2] of the same molecule?
A: 4.9 ± 0.9 µM

Q: What about the kcat [2] of the same molecule?
A: 2.8 ± 0.2 × 10^-3 s^-1

Q: What about the kcat/Km [2] of the same molecule?
A: 6 ± 1 × 10^2 M^-1s^-1

Q: And the Kd (Rtt109-Vps75 [3]; 167 μM AcCoA titrated into 5.8 μM Rtt109-Vps75, 50 mM Tris pH 7.5 at 25°C, 5% glycerol, 50 mM NaCl, 2 mM β-mercaptoethanol, 1 mM EDTA, one-site model)?
A: 1.4 ± 0.3 µM

Q: And the “binding affinity for AcCoA over CoA” value (Rtt109-Vps75 [3]; ratio of binding affinities, Rtt109-Vps75)?
A: 30 fold

Q: What does the source list for `CC(C)(COP(=O)(O)OP(=O)(O)OC[C@H]1O[C@@H](n2cnc3c(N)ncnc32)[C@H](O)[C@@H]1OP(=O)(O)O)[C@@H](O)C(=O)NCCC(=O)NCCS` [CoA, Coenzyme A]?
A: Ki (Rtt109-Vps75 [4]): 110 ± 20 µM; product inhibition pattern versus AcCoA (Rtt109-Vps75 [4]; varied AcCoA, fixed CoA, 5 μM full-length H3, double reciprocal plot): binds competitively with AcCoA; also recorded: competitive inhibition; Kd (Rtt109-Vps75 [3]): 43 ± 5 µM

Q: With “Rtt109: yeast histone acetyltransferase, Regulator of Ty1 Transposition 109” as the molecule, how does the “stability of protein alone” value [5] read?
A: unstable and precipitates at 25 °C; also recorded: unstable protein and is highly prone to aggregation

Q: For “labeled Vps75: Vps75 labeled with fluorescein-5-maleimide, 1:1”, which “loss in HAT activity on fluorescein labeling” value (Rtt109) is on record?
A: < 2 fold

Q: Which “pKa of ionizable group required for catalysis” value (p300) does the source give for “p300: mammalian HAT, structural homolog of Rtt109” here?
A: 8.4
